From ChEMBL document CHEMBL4177635, “Discovery and structure-activity-relationship study of novel conformationally restricted indane analogues for mutant isocitric dehydrogenase 1 (IDH1) inhibitors” (Bioorg Med Chem Lett, 2017) come the findings set out here.

By IC50 is commonly meant the point on the concentration scale where inhibition reaches its midpoint. A word on the AUC: it is concentration integrated over time. By clearance is commonly meant a measure of how efficiently the substance is removed, as volume per time.

Data set [1] addresses Isocitrate dehydrogenase [NADP] cytoplasmic (Homo sapiens, UniProt O75874, R132H). Nature of the data set: Inhibition of IDH1 R132H mutant (unknown origin) using alpha-ketoglutarate as substrate after 60 mins by resazurin dye based fluorescence assay.
Data set [2] concerns the target Isocitrate dehydrogenase [NADP] cytoplasmic (Homo sapiens, UniProt O75874, R132C). As to the kind of experiment: Inhibition of IDH1 R132C mutant in human HT1080 cells assessed as reduction in 2-hydroxyglutarate production after 48 hrs by LC-MS/MS analysis. The data set is classed as cell-based.
Data set [3] can be described thus: Intrinsic clearance in rat liver microsomes assessed per g protein at 1 uM by LC-MS/MS analysis. The format is ADME, microsome.
A short description of data set [4]: Intrinsic clearance in mouse liver microsomes assessed per g protein at 1 uM by LC-MS/MS analysis. The data set is classed as ADME, microsome. (In general: Microsomes from liver hold many membrane-bound enzymes, among them those of drug oxidation.)
Data set [5] is filed under the species Homo sapiens. As to the kind of experiment: Selectivity ratio of IC50 for IDH2 R140Q mutant (unknown origin) to IC50 for IDH2 R140Q mutant (unknown origin).
The test system of data set [6] is Mus musculus. Nature of the data set: AUC in ICR mouse at 5 mg/kg, po by HPLC-MS analysis. The format is ADME, organism-based. To be noted: in vivo.
The nature of data set [7]: Volume of distribution at steady state in ICR mouse at 1 mg/kg, iv or 5 mg/kg, po by HPLC-MS analysis. The data set is classed as ADME, organism-based. To be noted: in vivo, read-out: Vdss.
The species entered for data set [8] is Homo sapiens. As to the kind of experiment: Selectivity ratio of IC50 for IDH1 (unknown origin) to IC50 for […] (unknown origin).
Data set [9] deals with Isocitrate dehydrogenase [NADP] cytoplasmic (Homo sapiens, UniProt O75874). As to the kind of experiment: Inhibition of IDH1 (unknown origin) using isocitrate as substrate after 60 mins by resazurin dye based fluorescence assay. (Resazurin is reduced to fluorescent resorufin, in cell work by metabolically active cells.)
Data set [10] has as its system Mus musculus. Nature of the data set: Oral bioavailability in ICR mouse at 5 mg/kg by HPLC-MS analysis. The format is ADME, organism-based. Conditions: in vivo.
Data set [11] deals with Isocitrate dehydrogenase [NADP], mitochondrial (Homo sapiens, UniProt P48735, R140Q). Nature of the data set: Inhibition of IDH2 R140Q mutant (unknown origin) using alpha-ketoglutarate as substrate pretreated for 60 mins followed by substrate addition measured after 60 mins by resazurin dye based fluorescence assay.
Data set [12] is described as follows: Clearance in ICR mouse at 1 mg/kg, iv by HPLC-MS analysis. The data set is classed as ADME, organism-based. To be noted: in vivo.
Data set [13] has as its system Mus musculus. Nature of the data set: AUC in ICR mouse at 1 mg/kg, iv by HPLC-MS analysis. The data set is classed as ADME, organism-based. Conditions: in vivo.

Isocitrate dehydrogenase [NADP] cytoplasmic (Homo sapiens, UniProt O75874, R132C), sequence (O75874 2-414 R132C limits assumed): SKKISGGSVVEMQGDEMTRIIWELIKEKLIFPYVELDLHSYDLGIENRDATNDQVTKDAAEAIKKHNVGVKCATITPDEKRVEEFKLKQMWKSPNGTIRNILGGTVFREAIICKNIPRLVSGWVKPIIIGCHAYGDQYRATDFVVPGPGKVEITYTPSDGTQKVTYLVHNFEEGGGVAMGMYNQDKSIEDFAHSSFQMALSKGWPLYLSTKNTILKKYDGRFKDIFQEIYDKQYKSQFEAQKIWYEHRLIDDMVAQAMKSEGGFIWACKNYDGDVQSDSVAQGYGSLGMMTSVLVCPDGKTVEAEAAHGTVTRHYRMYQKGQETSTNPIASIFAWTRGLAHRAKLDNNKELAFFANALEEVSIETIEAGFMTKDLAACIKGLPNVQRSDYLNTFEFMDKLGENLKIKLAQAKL
Isocitrate dehydrogenase [NADP] cytoplasmic (Homo sapiens, UniProt O75874, R132H), sequence (O75874 2-414 R132H limits assumed): as the sequence (O75874 2-414 R132C limits assumed) above, with C131H counted along it
Isocitrate dehydrogenase [NADP], mitochondrial, sequence (P48735 40-452 R140Q limits assumed): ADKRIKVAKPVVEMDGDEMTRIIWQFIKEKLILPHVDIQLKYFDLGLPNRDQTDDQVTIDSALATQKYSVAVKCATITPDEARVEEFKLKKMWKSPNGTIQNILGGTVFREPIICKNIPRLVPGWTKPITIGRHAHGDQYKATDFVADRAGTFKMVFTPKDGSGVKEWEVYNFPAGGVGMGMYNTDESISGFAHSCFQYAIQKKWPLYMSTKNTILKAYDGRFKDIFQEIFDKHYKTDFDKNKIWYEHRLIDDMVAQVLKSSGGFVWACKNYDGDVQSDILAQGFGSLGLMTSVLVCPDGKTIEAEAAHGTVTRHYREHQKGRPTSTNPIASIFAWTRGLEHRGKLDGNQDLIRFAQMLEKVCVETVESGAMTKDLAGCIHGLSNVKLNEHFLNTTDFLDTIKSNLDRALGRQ
Isocitrate dehydrogenase [NADP] cytoplasmic (Homo sapiens, UniProt O75874), sequence (O75874 whole entry): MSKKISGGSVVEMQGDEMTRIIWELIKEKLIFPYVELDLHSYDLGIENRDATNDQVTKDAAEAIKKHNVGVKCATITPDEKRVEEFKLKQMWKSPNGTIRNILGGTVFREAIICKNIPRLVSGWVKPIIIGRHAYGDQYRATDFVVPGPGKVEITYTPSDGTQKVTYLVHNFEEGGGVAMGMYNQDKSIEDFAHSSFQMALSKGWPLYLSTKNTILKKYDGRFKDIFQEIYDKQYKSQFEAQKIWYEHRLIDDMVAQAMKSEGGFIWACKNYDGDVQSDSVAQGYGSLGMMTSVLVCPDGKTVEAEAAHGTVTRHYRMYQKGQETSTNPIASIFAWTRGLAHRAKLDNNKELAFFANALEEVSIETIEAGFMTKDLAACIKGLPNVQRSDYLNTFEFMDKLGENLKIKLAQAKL

As to `N#Cc1ccnc(N2C(=O)OC[C@H]2C(=O)N(c2cccc(F)c2)[C@@]2(C(=O)NC3CC(F)(F)C3)CCc3cccc(Cl)c32)n1`, the IC50 came to 5.6 nM in data set [1] and 29 nM in data set [2].
The matching figures for `N#Cc1ccnc(N2C(=O)CC[C@H]2C(=O)N(c2cccc(F)c2)[C@@]2(C(=O)NC3CC(F)(F)C3)CCc3c(Cl)cccc32)c1`: 67 nM and 21 nM.
`N#Cc1ccnc(N2C(=O)CC[C@H]2C(=O)N(c2cccc(F)c2)[C@@]2(C(=O)NC3CC(F)(F)C3)CCc3ccccc32)c1`: the results for the half-inhibitory concentration (IC50) in data set [1] and in data set [2] were 85 nM and 25 nM, respectively. The CLH turned out to be 3.7 mL/min in data set [3] and 54.1 mL/min in data set [4].
Consider `CS(=O)(=O)c1ccnc(N2C(=O)CC[C@H]2C(=O)N(c2cc(F)cc(F)c2)[C@@]2(C(=O)NC3CC(F)(F)C3)CCc3ccccc32)c1`, for which the IC50 in data set [1] was 2960 nM.
`COc1ccnc(N2C(=O)CC[C@H]2C(=O)N(c2cc(F)cc(F)c2)[C@@]2(C(=O)NC3CC(F)(F)C3)CCc3ccccc32)c1` showed an IC50 in data set [1] above 10000 nM.
With `N#Cc1ccnc(N2C(=O)CC[C@H]2C(=O)N(c2cc(F)cc(F)c2)[C@@]2(C(=O)NC3CC(F)(F)C3)CCc3ccccc32)n1`, the IC50 in [1] is 22 nM; in [2], 14.9 nM.
Turning to `N#Cc1ccnc(N2C(=O)CC[C@H]2C(=O)N(c2cc(F)cc(F)c2)[C@@]2(C(=O)NC3CC(F)(F)C3)CCc3c(Cl)cccc32)c1`, the values for the concentration for half-maximal inhibition (IC50) in data set [1] and in data set [2] were 53 nM and 14 nM, respectively.
Take `N#Cc1ccnc(N2C(=O)CC[C@H]2C(=O)N(c2ccc(Cl)c(F)c2)[C@@]2(C(=O)NC3CC(F)(F)C3)CCc3ccccc32)c1`: in data set [1], inhibition was half-maximal at 186 nM (IC50).
Compound `O=C1CC[C@@H](C(=O)N(c2cc(F)cc(F)c2)[C@@]2(C(=O)NC3CC(F)(F)C3)CCc3ccccc32)N1c1cnccn1` registered an IC50 in data set [1] of 128 nM.
Compound `N#Cc1ccnc(N2C(=O)CC[C@H]2C(=O)N(c2cncc(F)c2)[C@@]2(C(=O)NC3CC(F)(F)C3)CCCc3ccccc32)c1` had an IC50 in data set [1] of 275 nM.
Turning to `N#Cc1ccnc(N2C(=O)CC[C@H]2C(=O)N(c2cc(F)cc(F)c2)[C@@]2(C(=O)NC3CC(F)(F)C3)CCc3ccccc32)c1`, the IC50 is 45 nM in data set [1], 3560 nM in data set [9], above 100 nM in data set [11] and 5 nM in [2]. Moreover, the figures for the Ratio IC50 in the data set filed under Homo sapiens [5] and in the data set listed under Homo sapiens [8] were above 2200 and 79, respectively. Further, the values for the AUC in the data set on Mus musculus [6] and with Mus musculus [13] were 3620 ng·h/mL and 1984 ng·h/mL, respectively. Further, in data set [7], the Vd stood at 1 L. Moreover, in the data set with Mus musculus [10], the F is 87%. In data set [12], this compound had a clearance of 8.33 mL/min/kg.
On to `N#Cc1ccnc(N2C(=O)CC[C@H]2C(=O)N(c2cncc(F)c2)[C@@]2(C(=O)NC3CC(F)(F)C3)CCc3ccccc32)c1`, for which the IC50 worked out at 94 nM in [1] and 21 nM in [2].
On to `N#Cc1ccnc(N2C(=O)CC[C@H]2C(=O)N(c2cccc(F)c2)[C@@]2(C(=O)NC3CC(F)(F)C3)CCc3cccc(F)c32)c1`, for which the IC50 in data set [1] amounted to 51 nM; in data set [2], 52 nM.
With `N#Cc1ccnc(N2C(=O)CC[C@H]2C(=O)N(c2cc(F)cc(Cl)c2)[C@@]2(C(=O)NC3CC(F)(F)C3)CCc3ccccc32)c1`, the IC50 in data set [1] came to 172 nM.
Same read-out and setting: for `N#Cc1ccnc(N2C(=O)CC[C@H]2C(=O)N(c2ccc(F)c(F)c2)[C@@]2(C(=O)NC3CC(F)(F)C3)CCc3ccccc32)c1` the value was 95 nM.
The compound `N#Cc1ccnc(N2CCC[C@H]2C(=O)N(c2cccc(F)c2)[C@@]2(C(=O)NC3CC(F)(F)C3)CCc3ccccc32)c1` came in with an IC50 in data set [1] of 635 nM.
In turn, `N#Cc1cccc(N2C(=O)CC[C@H]2C(=O)N(c2cc(F)cc(F)c2)[C@@]2(C(=O)NC3CC(F)(F)C3)CCc3ccccc32)c1` displayed an IC50 in [1] of 2610 nM.
`N#Cc1ccnc(N2C(=O)OC[C@H]2C(=O)N(c2cc(F)cc(F)c2)[C@@]2(C(=O)NC3CC(F)(F)C3)CCc3ccccc32)c1`: the results for the IC50 in data set [1] and in data set [2] were 54 nM and 8.9 nM, respectively.
Compound `N#Cc1ccnc(N2C(=O)CC[C@H]2C(=O)N(c2cccc(F)c2)[C@@]2(C(=O)Nc3ccccc3)CCc3ccccc32)c1` registered an IC50 in data set [1] above 1000 nM.
Take `N#Cc1ccnc(N2C(=O)CC[C@H]2C(=O)N(c2cccc(F)c2)[C@@]2(C(=O)NC3CCCCC3)CCc3ccccc32)c1`: the values for the IC50 in data set [1] and in [2] were 37 nM and below 10 nM, respectively. In addition, the CLH amounted to 1145 mL/min in [3] and 2359 mL/min in data set [4].
On to `N#Cc1ccnc(N2C(=O)OC[C@H]2C(=O)N(c2cccc(F)c2)[C@@]2(C(=O)NC3CC(F)(F)C3)CCc3ccccc32)c1`, for which the results for the IC50 in data set [1] and in [2] were 58 nM and 19 nM, respectively.
Consider `N#Cc1ccnc(N2C(=O)CC[C@H]2C(=O)N(c2cccc(F)c2)[C@@]2(C(=O)NCC3CCC(F)(F)CC3)CCc3ccccc32)c1`, for which the results for the IC50 in data set [1] and in [2] were 80 nM and 15 nM, respectively. In addition, the figures for the CLH in data set [3] and in data set [4] were 24 mL/min and 567 mL/min, respectively.
For `N#Cc1ccnc(N2C(=O)CC[C@H]2C(=O)N(c2cccc(F)c2)[C@@]2(C(=O)NC3CC(F)(F)C3)CCc3cccc(Cl)c32)n1`, the IC50 in data set [1] was determined as 22 nM; in data set [2], 42 nM.
For `N#Cc1ccnc(N2C(=O)CC[C@@H]2C(=O)N(c2cccc(F)c2)[C@@]2(C(=O)NC3CC(F)(F)C3)CCc3ccccc32)c1`, the IC50 in data set [1] was above 10000 nM.
On to `N#Cc1ccnc(N2C(=O)CC[C@H]2C(=O)N(c2cccc(F)c2)[C@@]2(C(=O)NC3CC(F)(F)C3)CCc3ccc(F)cc32)c1`, for which the IC50 in [1] was 138 nM.
For `N#Cc1ccnc(N2C(=O)OC[C@H]2C(=O)N(c2cccc(F)c2)[C@@]2(C(=O)NC3CC(F)(F)C3)CCc3cccc(Cl)c32)c1`, the half-inhibitory concentration (IC50) in data set [1] was determined as 42 nM; in data set [2], 9 nM.
With `N#Cc1ccnc(N2C(=O)CC[C@H]2C(=O)N(c2cccc(F)c2)[C@@]2(C(=O)NC3CC(F)(F)C3)CCc3c(F)cccc32)c1`, the figures for the IC50 in data set [1] and in data set [2] were 68 nM and 27 nM, respectively.
On to `N#Cc1ccnc(N2C(=O)CC[C@H]2C(=O)N(c2cc(F)ccc2F)[C@@]2(C(=O)NC3CC(F)(F)C3)CCc3ccccc32)c1`, for which, in [1], the midpoint of inhibition, the IC50, lay at 338 nM.
In the case of `N#Cc1ccnc(N2C(=O)CC[C@H]2C(=O)N(c2cccc(F)c2)[C@@]2(C(=O)NC3CC(F)(F)C3)CCc3cc(Cl)ccc32)c1`, the IC50 in data set [1] is 49 nM; in data set [9], 1780 nM; in data set [11], above 100 nM; in data set [2], 7.5 nM. In addition, the results for the Ratio IC50 in the data set listed under Homo sapiens [5] and in the data set listed under Homo sapiens [8] were above 2040 and 36, respectively. The AUC in the data set on Mus musculus [6] turned out to be 3780 ng·h/mL; with Mus musculus [13], 834 ng·h/mL. In data set [7], the Vd is 1.9 L. Further, in the data set on Mus musculus [10], the F was found to be 38%. In data set [12], this compound showed a clearance of 20 mL/min/kg.
For `N#Cc1ccnc(N2C(=O)CC[C@H]2C(=O)N(c2cccc(F)c2F)[C@@]2(C(=O)NC3CC(F)(F)C3)CCc3ccccc32)c1`, the IC50 in data set [1] is 148 nM.
On the same count and under the same terms, for `N#Cc1ccnc(N2C(=O)CC[C@H]2C(=O)N(c2cccc(F)c2)[C@@]2(C(=O)NCC3CC3)CCc3ccccc32)c1` the value was 266 nM; for `N#Cc1ccnc(N2C(=O)CC[C@H]2C(=O)N(c2cc(F)cc(F)c2)[C@@]2(C(=O)NC3CC(F)(F)C3)CCc3cccc(Cl)c32)c1`, 180 nM.
With `N#Cc1ccnc(N2C(=O)OC[C@H]2C(=O)N(c2cc(F)cc(F)c2)[C@@]2(C(=O)NC3CC(F)(F)C3)CCc3ccccc32)n1`, the IC50 stood at 40 nM in data set [1] and 308 nM in data set [2].
`N#Cc1ccnc(N2C(=O)CC[C@H]2C(=O)N(c2cncc(F)c2)[C@@]2(C(=O)NC3CC(F)(F)C3)Cc3ccccc32)c1` displayed an IC50 in [1] of 270 nM.
Take `O=C1CC[C@@H](C(=O)N(c2cc(F)cc(F)c2)[C@@]2(C(=O)NC3CC(F)(F)C3)CCc3ccccc32)N1c1ccccn1`: the IC50 in data set [1] was above 10000 nM.
As to `N#Cc1ccnc(N2C(=O)CC[C@H]2C(=O)N(c2cccc(F)c2)[C@@]2(C(=O)NC3CCOCC3)CCc3ccccc32)c1`, in data set [1], the IC50 is above 1000 nM.
Regarding `N#Cc1ccnc(N2C(=O)CC[C@H]2C(=O)N(c2cccc(F)c2)[C@@]2(C(=O)NC3CC(F)(F)C3)CCc3cc(F)ccc32)c1`, the IC50 in data set [1] was 108 nM.
In the case of `N#Cc1ccnc(N2C(=O)CC[C@H]2C(=O)N(c2ccccc2)[C@@]2(C(=O)NC3CC(F)(F)C3)CCc3ccccc32)c1`, in data set [1], the IC50 came out at 260 nM.
On to `N#Cc1ccnc(N2C(=O)CC[C@H]2C(=O)N(c2cccc(Cl)c2)[C@@]2(C(=O)NC3CC(F)(F)C3)CCc3ccccc32)c1`, for which, in data set [1], 255 nM corresponded to half-maximal inhibition (IC50).
